# According to patent US20110165094A1, “USE OF VITAMIN E OR DERIVATIVES THEREOF FOR THE CONTROL OF ARTHROPODS” (BIO.LO.GA S.R.L., priority 2008, published 2011):
# Tested on: Pediculus capitis
# Test: Test 3: comparison of Example 1 formulation with 100% cyclomethicone spray, head louse mortality
# Type: in vivo
# Conditions: after 24 hours
# Method: A comparison test was also carried out between the formulation of Example 1, a compressed air spray similar to that described in Example 1, but containing 100% of cyclomethicone and a control composed of water.
# Head lice were obtained from volunteer children using the same procedures outlined above for test 1.
# The lice were distributed in groups of twenty onto squares of open mesh nylon gauze as a support substrate. Each group was placed on 90 millimetre plastic Petri dish.
# Each square (4 cm^2) of gauze with the lice attached was then massaged with approx. 5 ml of the formulation to be tested. This was done on the dry gauze so that the formulations could be used neat. The formulations were then left exposed to the air for the specified exposure time.
# After the lice had been exposed to the formulation to be tested for a given exposure time, water was added to the gauze, together with approx. 1 ml of shampoo and the gauze was massaged once more to produce a satisfactory foam. The gauze was then rinsed three times with 250 ml of warm tap water (34° C.) poured over and through the gauze squares. The gauze was then blotted dry with medical wipe tissue and incubated under normal maintenance conditions in clean plastic Petri dishes of appropriate dimensions until the results were recorded. […]
smiles,measurement,value
"CC(=O)Oc1c(C)c(C)c2c(c1C)CCC(C)(CCC[C@H](C)CCC[C@H](C)CCCC(C)C)O2 (stereo partly drawn) [vitamin E acetate, d,l-alpha-Tocopherol acetate]",effect on the lice (inferred from Example 1 vs 100% cyclomethicone spray),significant effect
